Data from patent US20070059269A1, “Administration of 8-hexadecene-1,16-dicarboxylic acid for promoting cohesion of the epidermal horny layer” (L'OREAL, priority 2005, published 2007).

How the values were obtained:
Assay type in all cases: cell-based
[1] = system: Cdsn (corneodesmosine); assay: Differential expression by cDNA minichips in NHEK: corneodesmosine (Cdsn); conditions: normal human epidermal keratinocytes (NHEK), cDNA array
Description: (§1) Analysis of the Differential expression by Minichips:
(§2) In order to study the activity of a product on the formation of the horny layer, the effect of the product on the expression of genes known to be modulated in keratinocytes during their transformation into corneocytes is analyzed.
(§3) The analysis is performed using dedicated minichips, consisting of cDNA membrane arrays known to those skilled in the art for their relationship with re-epithelialization and/or cohesion of the horny layer, especially such as the LEP proteins (late epidermal proteins), corneodesmosines and epidermal growth factor HBEGF (human heparin-binding EGF-like growth factor).
(§4) The cell model used comprises normal human epidermal keratinocytes (NHEK). The keratinocytes are cultured in SFM medium with 0.25 ng/ml EGF and 25 μg/ml of pituitary extract at 37° C. and 5% CO2. The keratinocytes are inoculated in 25 cm^2 dishes and precultured in whole SFM medium, and then placed in EGF-free and pituitary extract-free SFM medium.
(§5) The test products are applied at the non-irritant and non-cytotoxic concentrations defined in a).
(§6) The controls correspond to the same conditions, in the absence of product.
(§7) The cells are then rinsed with PBS and then lysed and the messenger RNA is extracted and purified using the kit Chemagic mRNA Direct kit marketed by Chemagen.
(§8) The RNA of each culture is then reverse-transcripted using a pool of primers corresponding to the cDNAs immobilized on the membranes (probes) and a ^33P-labelled deoxynucleotide triphosphate.
(§9) Multiple cDNA “target” labeled sequences were thus prepared for each culture. These targets were then hybridized, under optimal conditions, with the excess “probe” cDNAs bound to the membranes. […] The membrane analysis was performed using the ImageQuant TL software (Image Analysis, Amersham Biosciences) and the data recorded were then processed on Excel. The differential expression of the various genes following the treatment is thus measured by comparison with the corresponding control.

[2] = system: LEP16; assay: Differential expression by cDNA minichips in NHEK: LEP16; conditions: normal human epidermal keratinocytes (NHEK), cDNA array
Description: as §1, §2, §3, §4, §5, §6, §7, §8, §9

[3] = system: HBEGF (human heparin-binding EGF-like growth factor); assay: Differential expression by cDNA minichips in NHEK: HBEGF; conditions: 1 μg/ml, normal human epidermal keratinocytes (NHEK), cDNA array
Description: as §1, §2, §3
as §4, with “medium. […]” for “medium.”
Multiple cDNA “target” labeled sequences were thus prepared for each culture. […] The membrane analysis was performed using the ImageQuant TL software (Image Analysis, Amersham Biosciences) and the data recorded were then processed on Excel. The differential expression of the various genes following the treatment is thus measured by comparison with the corresponding control.

[4] = 1 μg/ml, listed as 8-hexadecene-1,16-dicarboxylic acid

O=C1O[C@H]([C@@H](O)CO)C(O)=C1O [Ascorbic acid, reference compound]
Markers for intercorneocytic cohesion (Cdsn): Cdsn expression, multiplicative factor vs control ([1]; 100 μg/ml): Cdsn (×1.7)

O=C(O)CCCCCCCC=CCCCCCCCC(=O)O [Dioic acid, 8-hexadecene-1,16-dicarboxylic acid]
Markers for the formation of the horny layer (LEP): LEP16 expression, multiplicative factor vs control ([2]; 1 μg/ml): LEP16 (×3.0) | Markers for the formation of the horny layer (LEP): LEP16 expression, multiplicative factor vs control [2, 4]: capable of stimulating the expression | Markers for intercorneocytic cohesion (Cdsn): Cdsn expression, multiplicative factor vs control ([1]; 1 μg/ml): Cdsn (×2.4) | Markers for intercorneocytic cohesion (Cdsn): Cdsn expression, multiplicative factor vs control [1, 4]: capable of stimulating the expression | Re-epithelialization markers: HBEGF expression, multiplicative factor vs control [3]: HBEGF (×1.6) | Re-epithelialization markers: HBEGF expression, multiplicative factor vs control ([3]; listed as 8-hexadecene-1,16-dicarboxylic acid): capable of stimulating the expression

O=C(O)CO [Glycolic acid, reference compound]
Markers for the formation of the horny layer (LEP): LEP16 expression, multiplicative factor vs control ([2]; 100 μg/ml): LEP16 (×2.6) | Markers for intercorneocytic cohesion (Cdsn): Cdsn expression, multiplicative factor vs control ([1]; 100 μg/ml): Cdsn (×1.6)

CC(O)C(=O)O (stereo not shown) [Lactic acid, reference compound]
Markers for the formation of the horny layer (LEP): LEP16 expression, multiplicative factor vs control ([2]; 100 μg/ml): LEP16 (×1.6)
